Experimental data taken from patent publication EP4168396B1, “COMPOUNDS FOR THE TREATMENT OF NEURODEGENERATIVE DISEASES” (Universite De Franche Comte, priority 2020, dated 2021).
Where two headings read alike, the source gives them in different places.

Legend:
Human recombinant GSK-3β = target: T1, Human recombinant GSK-3β (Homo sapiens, UniProt P49841); test: GSK-3β inhibition in vitro assay (Kinase-Glo luminescence); type: biochemical
T1 construct: purchased Millipore (Millipore Iberica S.A.U.)
T1 sequence (P49841 whole entry): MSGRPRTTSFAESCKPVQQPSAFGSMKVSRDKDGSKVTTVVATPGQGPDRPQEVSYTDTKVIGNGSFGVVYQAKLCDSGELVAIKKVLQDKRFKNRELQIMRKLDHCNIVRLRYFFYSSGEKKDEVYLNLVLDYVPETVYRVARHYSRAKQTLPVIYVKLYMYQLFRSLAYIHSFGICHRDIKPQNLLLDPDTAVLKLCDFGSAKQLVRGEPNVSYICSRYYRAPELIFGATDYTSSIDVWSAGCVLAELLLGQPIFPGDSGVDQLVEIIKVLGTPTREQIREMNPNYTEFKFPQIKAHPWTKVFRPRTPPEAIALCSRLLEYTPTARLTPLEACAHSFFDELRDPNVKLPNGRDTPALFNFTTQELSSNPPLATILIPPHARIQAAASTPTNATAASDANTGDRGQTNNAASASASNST
Procedure: Human recombinant GSK-3β, prephosphorylated polypeptide substrate and white 96-well plates were purchased from Millipore (Millipore Iberica S.A.U.). Kinase-Glo Luminescent Kinase Assay was obtained from Promega (Promega Biotech Iberica, SL). Adenosinetriphosphate (ATP) and all other reagents were from Sigma-Aldrich. Assay buffer contained 50 mM 4-(2-hydroxyethyl)-1- piperazineethanesulfonic acid (HEPES) (pH 7.5), 1 mM ethylenediaminetetraacetic acid (EDTA), 1 mM ethylene glycol tetraacetic acid (EGTA), and 15 mM magnesium acetate. The in solution experiments for GSK-3β inhibition analysis were performed by following the method developed by Baki et al.^18. In a typical assay, 10 µL of test compound (dissolved in DMSO at 1 mM concentration and diluted in advance in assay buffer to the desired concentration) and 10 µL (20 ng) of enzyme were added to each well in presence of 20 µL of assay buffer containing GSM substrate and ATP in order to reach a 25 µM and 1 µM final concentration respectively. […] After a 30 min incubation time at 30 °C, the enzymatic reaction was stopped by adding 40 µL of Kinase-Glo reagent. Glow-type luminescence was recorded after 10 min using a VictorX 3 PerkinElmer plate reader. […]. The linear regression parameters were determined and the IC50 extrapolated (GraphPad Prism 4.0, GraphPad Software Inc.).

human H3 receptor = target: T2, human H3 receptor (Homo sapiens, UniProt Q9Y5N1); test: H3 Receptor Binding Assay (radioligand binding); settings: membranes from CHO-K1 cells, [3H]-N-α-methylhistamine 1.0 nM; read-out: H3R Ki [nM] ± SEM
T2 construct: expressed in transfected cells; host or cells: CHO-K1
T2 sequence (Q9Y5N1 whole entry): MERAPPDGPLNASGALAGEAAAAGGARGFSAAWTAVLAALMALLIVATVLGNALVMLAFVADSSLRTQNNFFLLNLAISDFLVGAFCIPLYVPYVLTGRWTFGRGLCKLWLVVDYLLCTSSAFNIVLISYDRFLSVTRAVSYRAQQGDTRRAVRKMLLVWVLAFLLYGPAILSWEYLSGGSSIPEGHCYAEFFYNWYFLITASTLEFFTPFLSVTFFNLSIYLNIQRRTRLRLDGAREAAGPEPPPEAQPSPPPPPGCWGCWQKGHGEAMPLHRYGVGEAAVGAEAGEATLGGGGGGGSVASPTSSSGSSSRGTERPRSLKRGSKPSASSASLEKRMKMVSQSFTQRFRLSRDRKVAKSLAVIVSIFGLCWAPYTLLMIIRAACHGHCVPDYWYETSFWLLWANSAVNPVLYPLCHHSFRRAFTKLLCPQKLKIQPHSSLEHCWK
Procedure: 10 mM stock solutions of compounds to be tested were prepared in DMSO.
Radioligand binding was performed using membranes from CHO-K1 cells stably transfected with the human H3 receptor. All assays were carried out in duplicates. 50 µl working solution of the tested compounds, 50 µl [3H]-N-α-methylhistamine (spec. act. 82.9 Ci/mmol, final concentration 1.0 nM) and 150 µl diluted membranes (15 µg protein per well) prepared in assay buffer (50 mM Tris, pH 7.4, 5 mM MgCl2) were transferred to polypropylene 96-well microplate using 96-wells pipetting station Rainin Liquidator (MettlerToledo). […] Microplate was covered with a sealing tape, mixed and incubated for 60 minutes at 27°C. The reaction was terminated by rapid filtration through GF/B filter mate presoaked with 0.5% polyethyleneimine for 30 minutes. Five rapid washes with 300 µl 50 mM Tris buffer (4°C, pH 7.4) were performed using 96-well FilterMate harvester (PerkinElmer, USA). The filter mates were dried at 37°C in forced air fan incubator and then solid scintillator MeltiLex was melted on filter mates at 90°C for 4 minutes. Radioactivity was counted in MicroBeta2 scintillation counter (PerkinElmer). Data were fitted to a one-site curve-fitting equation with Prism 5 (GraphPad Software) and Ki values were estimated from the Cheng-Prusoff equation.

[1] = target: T3, human recombinant acetylcholinesterase (hAChE) (Homo sapiens, UniProt P22303); test: Cholinesterase inhibition assay (Ellman), hAChE; type: biochemical
T3 construct: purchased Sigma-Aldrich
T3 sequence (P22303 32-614): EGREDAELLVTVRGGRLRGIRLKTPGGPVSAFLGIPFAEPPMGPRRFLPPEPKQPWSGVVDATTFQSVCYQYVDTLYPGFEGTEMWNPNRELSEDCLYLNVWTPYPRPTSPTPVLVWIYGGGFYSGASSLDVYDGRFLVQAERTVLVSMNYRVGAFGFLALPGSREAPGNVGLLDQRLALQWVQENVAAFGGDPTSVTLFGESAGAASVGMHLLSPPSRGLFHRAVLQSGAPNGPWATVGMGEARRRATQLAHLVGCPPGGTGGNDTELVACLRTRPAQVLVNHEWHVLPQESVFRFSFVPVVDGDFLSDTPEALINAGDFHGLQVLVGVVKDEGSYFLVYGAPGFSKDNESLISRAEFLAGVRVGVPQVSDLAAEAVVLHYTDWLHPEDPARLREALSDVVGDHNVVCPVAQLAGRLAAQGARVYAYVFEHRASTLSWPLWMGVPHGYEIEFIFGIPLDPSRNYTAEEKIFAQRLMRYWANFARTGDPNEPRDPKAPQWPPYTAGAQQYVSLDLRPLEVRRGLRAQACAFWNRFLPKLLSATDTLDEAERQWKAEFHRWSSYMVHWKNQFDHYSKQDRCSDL
Procedure: Inhibitory activities of the test compounds against the human cholinesterases were measured using the spectrophotometric method described by Ellman et al.^4, as modified for 96-well microplates. 5,5'-Dithiobis-(2-nitrobenzoic acid) (DTNB), acetylthiocholine iodide (ATC), butyrylthiocholine iodide (BTC), and human recombinant acetylcholinesterase (hAChE) were purchased from Sigma-Aldrich. Human butyrylcholinesterase (hBuChE) isolated from human plasma was from Vivonics (Bedford, MA, USA). […] In the first step of Ellman's method 25 µL of the test compound (or mixture DMSO/water in appropriate ratio; i.e. blank samples) was incubated in 0.1 M phosphate buffer (200 µL, pH= 8.0) with DTNB (20 µL; 0.0025M) and the enzyme (20 µL; hAChE or hBuChE) in temperature 36 °C. […] All compounds were tested at screening concentration of 10 µM. Percent of inhibition was calculated from 100-(S/B)×100, where S and B were the respective enzyme activities with and without the test sample, respectively. […] All reactions were performed in triplicate. The IC50 values were calculated using nonlinear regression (GraphPad Prism 5 [GraphPad Software, San Diego California USA 5.00]) by plotting the residual enzyme activities against the applied inhibitor concentration. Tacrine was used as a reference compound.

[2] = test system: voltage-gated Ca^2+ channels (VGCC); test: Calcium channel antagonist assay (cytosolic Ca2+, Fluo-4); type: cell-based; settings: SH-SY5Y cells, K+ 70 mM
Procedure: The cytosolic Ca2+ has been measured in SH-SY5Y cells. SH-SY5Y cells were maintained similarly to what was previously described56. Free cytosolic Ca2+ was measured using the fluorescent Ca2+ indicator Fluo-4/AM (Fluo-4 acetomethoxyester). SH-SY5Y cells were seeded onto 96-well black plates at a density of 10^5 cells per well, achieving confluence after 48 h. Cells were washed with Krebs-Hepes solution (KH, in mM: 144 NaCl, 5.9 KCl, 1.2 MgCl2, 2 CaCl2, 11 D-glucose, 10 HEPES, pH 7.4). Cells were loaded with 10 µM Fluo-4/AM and 0.2% pluronic acid in KH and incubated for 45 min at 37 °C in the dark. Then, cells were washed twice with KH to remove the excess of probe. Tested compounds were incubated 10 min before K+ 70 mM was applied to evoke the increment of cytosolic Ca2+. To normalize Fluo-4 signals, Triton X-100 (5%) and 1 M MnCl2 were applied to register both maximal and minimal fluorescence, respectively. The experiments were analyzed at excitation and emission wavelengths of 485 and 520 nm, respectively, and fluorescence was measured in a fluorescence microplate reader (FLUOstar Optima, BMG, Germany). Data were calculated as a percentage of Fmax - Fmin.
The blocking effect of the depolarization-induced Ca^2+ uptake was investigated in SH-SY5Y neuroblastoma cells stimulated with an extracellular concentration of K^+ 70 mM, which induces the cell Ca^2+ levels elevation by opening voltage-gated Ca^2+ channels (VGCC), monitored with the Ca^2+-sensitive fluorescent dye Fluo-4. Nimodipine was used as positive standard.

[3] = target: T4, Human butyrylcholinesterase (hBuChE) (Homo sapiens, UniProt P06276); test: Cholinesterase inhibition assay (Ellman), hBuChE; type: biochemical
T4 construct: Human butyrylcholinesterase (hBuChE) isolated from human plasma was from Vivonics; purchased Vivonics (Bedford, MA, USA); host or cells: human plasma
T4 sequence (P06276 29-602): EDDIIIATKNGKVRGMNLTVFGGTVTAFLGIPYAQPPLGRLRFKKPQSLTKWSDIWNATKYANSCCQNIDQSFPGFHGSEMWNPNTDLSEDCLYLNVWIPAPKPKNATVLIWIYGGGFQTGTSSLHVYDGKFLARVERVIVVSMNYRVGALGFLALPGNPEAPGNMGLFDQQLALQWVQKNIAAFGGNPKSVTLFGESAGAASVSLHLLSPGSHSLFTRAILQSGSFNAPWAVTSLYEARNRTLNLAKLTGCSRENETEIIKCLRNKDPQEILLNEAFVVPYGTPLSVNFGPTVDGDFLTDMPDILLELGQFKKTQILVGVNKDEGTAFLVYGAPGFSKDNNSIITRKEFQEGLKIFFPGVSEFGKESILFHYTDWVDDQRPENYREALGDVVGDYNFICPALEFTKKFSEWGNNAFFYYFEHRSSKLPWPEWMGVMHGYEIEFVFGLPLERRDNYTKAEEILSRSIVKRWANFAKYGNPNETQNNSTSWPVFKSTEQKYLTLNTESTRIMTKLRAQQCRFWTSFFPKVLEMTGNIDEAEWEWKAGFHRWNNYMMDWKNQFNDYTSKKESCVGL
Procedure: Inhibitory activities of the test compounds against the human cholinesterases were measured using the spectrophotometric method described by Ellman et al.^4, as modified for 96-well microplates. 5,5'-Dithiobis-(2-nitrobenzoic acid) (DTNB), acetylthiocholine iodide (ATC), butyrylthiocholine iodide (BTC), and human recombinant acetylcholinesterase (hAChE) were purchased from Sigma-Aldrich. Human butyrylcholinesterase (hBuChE) isolated from human plasma was from Vivonics (Bedford, MA, USA). […] The stock solutions of the test compounds were prepared by dissolving in DMSO to obtain a concentration of 0.0034M. They were further diluted in water to give appropriate concentration in a well. In the first step of Ellman's method 25 µL of the test compound (or mixture DMSO/water in appropriate ratio; i.e. blank samples) was incubated in 0.1 M phosphate buffer (200 µL, pH= 8.0) with DTNB (20 µL; 0.0025M) and the enzyme (20 µL; hAChE or hBuChE) in temperature 36 °C. […] All compounds were tested at screening concentration of 10 µM. Percent of inhibition was calculated from 100-(S/B)×100, where S and B were the respective enzyme activities with and without the test sample, respectively. […] All reactions were performed in triplicate. The IC50 values were calculated using nonlinear regression (GraphPad Prism 5 [GraphPad Software, San Diego California USA 5.00]) by plotting the residual enzyme activities against the applied inhibitor concentration. Tacrine was used as a reference compound.

[4] = read-out: cholinesterases inhibition

Row | Structure (SMILES) | IC50 (Human recombinant GSK-3β; read-out: Gsk3β IC50) [nM] | Ki (human H3 receptor) [nM] | IC50 ([1]; read-out: hAChE IC50) [nM] | Calcium Channel % inhibition at 10µM [2] [%] | IC50 [1, 4] [nM] | IC50 [3] [nM] | IC50 (Human recombinant GSK-3β) [nM]
1 | CCOC(=O)C1=C(C)N(CCC2CCN(Cc3ccccc3)CC2)C(=O)NC1c1ccc(OCCCCN2CCOCC2)cc1 (stereo not drawn) [BIGI-BIH-D3, Ethyl 1-(2-(1-benzylpiperidin-4-yl)ethyl)-6-methyl-4-(4-(4-morpholinobutoxy)phenyl)-2-oxo-1,2,3,4-tetrahydropyrimidine-5-carboxylate] | 126000 | 12 ± 0.5 | 123 ± 2 | 23 |  |  | 
2 | CCOC(=O)C1=C(C)N(CCC2CCN(Cc3ccccc3)CC2)C(=O)NC1c1ccc(OCCCCN2CCCCC2)cc1 (stereo not drawn) [BIGI-BIH-D2, Ethyl 1-(2-(1-benzylpiperidin-4-yl)ethyl)-6-methyl-2-oxo-4-(4-(4-(piperidin-1-yl)butoxy)phenyl)-1,2,3,4-tetrahydropyrimidine-5-carboxylate] | 106000 | 0.6 ± 0.08 | 67 ± 1 | 13 | 123 | 928 ± 32 | 
3 | CCOC(=O)C1=C(C)N(CCC2CCN(Cc3ccccc3)CC2)C(=O)NC1c1ccc(OCCCCCCN2CCCCC2)cc1 (stereo not drawn) [BIGI-BIH-D8, Ethyl 1-(2-(1-benzylpiperidin-4-yl)ethyl)-6-methyl-2-oxo-4-(4-((6-(piperidin-1-yl)hexyl)oxy)phenyl)-1,2,3,4-tetrahydropyrimidine-5-carboxylate] | 68200 | 0.2 ± 0.02 | 86 ± 2 | 60 |  | 1250 ± 46 | 
4 | CCOC(=O)C1=C(C)N(CCC2CCN(Cc3ccccc3)CC2)C(=O)NC1c1ccc(OCCCCCN2CCCCC2)cc1 (stereo not drawn) [BIGI-BIH-D5, Ethyl 1-(2-(1-benzylpiperidin-4-yl)ethyl)-6-methyl-2-oxo-4-(4-((5-(piperidin-1-yl)pentyl)oxy)phenyl)-1,2,3,4-tetrahydropyrimidine-5-carboxylate] | 26300 | 0.3 ± 0.07 | 67 ± 1 | 34 |  | 1280 ± 72 | 
5 | CCOC(=O)C1=C(C)N(CCC2CCN(Cc3ccccc3)CC2)C(=O)NC1c1ccc(OCCCCN2CCCC2)cc1 (stereo not drawn) [BIGI-BIH-D1, Ethyl 1-(2-(1-benzylpiperidin-4-yl)ethyl)-6-methyl-2-oxo-4-(4-(4-(pyrrolidin-1-yl)butoxy)phenyl)-1,2,3,4-tetrahydropyrimidine-5-carboxylate] | 59800 | 2.8 ± 0.2 | 63 ± 1 | 5 | 63 | 1720 ± 119 | 
6 | COCCOC(=O)C1=C(C)NC(C)=C(C(=O)OC(C)C)C1c1cccc([N+](=O)[O-])c1 (stereo not drawn) [Nimodipine, reference compound] |  |  |  | 38 |  |  | 
7 | CCOC(=O)C1=C(C)N(CCC2CCN(Cc3ccccc3)CC2)C(=O)NC1c1ccc(OCCCCCN2CCOCC2)cc1 (stereo not drawn) [BIGI-BIH-D6, Ethyl 1-(2-(1-benzylpiperidin-4-yl)ethyl)-6-methyl-4-(4-((5-morpholinopentyl)oxy)phenyl)-2-oxo-1,2,3,4-tetrahydropyrimidine-5-carboxylate] | 56600 | 0.6 ± 0.05 | 115 ± 2 | 39 |  |  | 
8 | CCOC(=O)C1=C(C)N(CCC2CCN(Cc3ccccc3)CC2)C(=O)NC1c1ccc(OCCCCCCN2CCOCC2)cc1 (stereo not drawn) [BIGI-BIH-D9, Ethyl 1-(2-(1-benzylpiperidin-4-yl)ethyl)-6-methyl-4-(4-((6-morpholinohexyl)oxy)phenyl)-2-oxo-1,2,3,4-tetrahydropyrimidine-5-carboxylate] |  | 3 ± 0.4 | 115 ± 2 | 61 |  |  | 38600
9 | CCOC(=O)C1=C(C)N(CCC2CCN(Cc3ccccc3)CC2)C(=O)NC1c1ccc(OCCCCCN2CCCC2)cc1 (stereo not drawn) [BIGI-BIH-D4, Ethyl 1-(2-(1-benzylpiperidin-4-yl)ethyl)-6-methyl-2-oxo-4-(4-((5-(pyrrolidin-1-yl)pentyl)oxy)phenyl)-1,2,3,4-tetrahydropyrimidine-5-carboxylate] |  | 0.5 ± 0.05 | 88 ± 2 | 22 |  | 1390 ± 66 | 60500
10 | CCOC(=O)C1=C(C)N(CCC2CCN(Cc3ccccc3)CC2)C(=O)NC1c1ccc(OCCCCCCN2CCCC2)cc1 (stereo not drawn) [BIGI-BIH-D7, Ethyl 1-(2-(1-benzylpiperidin-4-yl)ethyl)-6-methyl-2-oxo-4-(4-((6-(pyrrolidin-1-yl)hexyl)oxy)phenyl)-1,2,3,4-tetrahydropyrimidine-5-carboxylate] | 30600 | 0.2 ± 0.04 | 89 ± 2 | 47 |  | 768 ± 13 | 
